From patent US11633443B2, “Algal extract comprising sulphated and non-sulphated polyanionic polysaccharides and uses thereof” (Amadeite, priority 2012, dated 2023)
Entries after “also recorded” stand apart in the source; their conditions may differ. Structures can show the parent of a compound that is named as a salt.

System: adult male Wistar rats
Assay: Behavioural despair test (BDT)
Type: in vivo, rat
Method: The anti-depressant effects of an algal extract according to the invention (AE), administered orally as a preventive treatment with 3 doses (10, 20 and 40 mg/kg/d) were evaluated in adult male Wistar rats in the behavioural despair test (BDT).
The extract was daily administered as a semi-chronic treatment for 14 days. The effects of the extract were evaluated in the BDT on groups of 12 rats as compared with a control batch treated with the carrier (spring water) and a reference batch treated with Imipramine at the dose of 10 mg/kg/d.
Sixty male Wistar rats (Charles River Laboratories, France) weighing from 200-225 g were used. Upon receiving them, the rats were marked and distributed in groups of 4 in polycarbonate cages of the F type (48×27×20 cm, U.A.R., 91-Epinay-Sur-Orge, France). The animals were housed in an air-conditioned animal housing facility, at a temperature of 22±2° C. and a relative humidity of 50±20%. The rats had standard feed 2016 (Harlan, Gannat, France) and drink ad libitum. They were subject to a reverse light-darkness cycle of 12 hours.
After getting used to the conditions of the laboratory for one week, the rats were weighed and randomized according to their weight in 5 treatment groups (n=12/group).
The experimental devices consisted in Plexiglas cylinders with a height of 50 cm and a diameter of 20 cm filled with water at 25° C. up to a height of 30 cm.
After 13 days of daily treatment with the products to be tested, the rats were placed at D14 in the devices for a period of 15 minutes in order to evaluate the immobility time of each animal. Immediately after this first test, the rats received their 14th treatment.
At D15, the rats received two treatments: the first, 5 hours before the test and the second 1 hour before the test. This procedure is usually used in the literature for testing the efficiency of a product against depression. The test was conducted under the same conditions as the day before for a period of 5 minutes.
The recorded immobility duration during the first 5 minutes of both tests (at D14 and D15) reflects the capacity of the animal of resigning itself when it is confronted with a situation from which it cannot escape. This resignation behaviour is assimilated with depression.
The product is an AE (algal extract) as a powder representing a freeze-dried and crushed concentrated fraction of a water-soluble algal extract prepared according to Example no. 1. The extract to be tested was dissolved in spring water and was administered to the rats orally at one of the 3 tested doses for 15 successive days with an administration volume of 5 ml/kg. The animals were weighed every two or three days in order to adapt their specific treatments to their weight. Their food and water intakes were noted every two or three days during the whole duration of the study.
The animals of the Reference group receive daily 10 mg/kg/d of Imipramine hydrochloride (Sigma Aldrich) dissolved in spring water with an administration volume of 5 ml/kg.
ANOVA in parametric mode was applied, followed, in the case of heterogeneity, by comparisons by means of the non-paired t-test for comparing the treated groups with the Carrier group and the Reference group.
Paired ANOVA was used, followed, in the case of heterogeneity, by comparisons with the paired t-test for two by two comparisons of repeated measurements of BDT in each of the groups.

CN(C)CCCN1c2ccccc2CCc2ccccc21 [Imipramine, Imipramine hydrochloride]
immobility time at D15 compared with the Carrier (in words) (10 mg/kg/d): significantly shorter | Immobility duration in the behavioural despair test at D15 (Average ± ESM) (10 mg/kg/d orally, 5 minutes test, n = 12): 3.8 ± 1.0 s | Immobility duration in the behavioural despair pre-test at D14 (Average ± SME) (10 mg/kg/d orally, first 5 minutes, n = 12): 16.3 ± 4.6 s | change of immobility time between D14 and D15 (in words) (10 mg/kg, hydrochloride): significantly decrease; also recorded: significantly reduced | immobility duration at D14: difference between Carrier, Imipramine and AE groups (Imipramine 10 mg/kg, AE at the three tested doses (10, 20, 40 mg/kg)): no significant difference
